{"source": "paper PMC9544108", "about": "(Chemmedchem, 2022)", "key": {"[1]": {"tested_on": "HT-29 cells", "details": "HT-29, 0.02-1.0 mM, 23 h, crystal violet, no Pb", "protocol": "We then tested the effect of 8 and 9 alone on cell viability compared with the two benchmark drugs.\n96-well plates were prepared such that every well contained 10,000 HT-29 cells in 100 µL\nmedium, and the cells were allowed to adhere for 24 h.\nTo all wells but the positive control wells, 10 µL of each solution of the examined peptides (0.24,\nand 1.0 mM. To the positive control wells, 10 µL of H 2O were added. Each condition was\nperformed in triplicates. The plates were incubated at 37 °C, and 5% CO2 for 23 h, after which the\nmedium was removed, the wells were washed with H2O, and 50 µL of crystal violet solution[10]\n(500 mg crystal violet powder in 20 mL CH3OH and 80 mL H2O) were added to each well. The\nplates were gently shaken (50 rpm) for 20 min. The plates were then washed with H 2O until no\nmore unbound dye was observed and allowed to dry overnight. 100 µL of CH3OH were added to\neach well, and the plates were gently shaken (50 rpm) for 20 min, after which their absorbance\nThe toxicity of each concentration of a peptide was calculated according to Equation S5:\n𝑇𝑜𝑥𝑖𝑐𝑖𝑡𝑦% = 𝐴[𝑃𝑒𝑝𝑋]−𝐴[𝑏𝑙𝑎𝑛𝑘] × 100% (S5)\nA[PepX] – absorbance of well in the presence of X mM of peptide\nA[POS] – absorbance of well that contains no peptides"}, "[2]": {"tested_on": "Pb-poisoned HT-29 cells", "assay": "recovery assay of Pb-poisoned cells (crystal violet)", "assay_type": "cell-based, human", "details": "HT-29, Pb(NO3)2 0.2 mM, further 23 h; for recovery of Pb-poisoned cells, in words: compound 0.02-1 mM added 1 h later; for viability of Pb-poisoned cells relative to the negative control (recovery): peptide added 1 h later, up to 1 mM (5 equiv.), at least 3 independent experiments", "description": "Human HT‐29 cells were used to investigate the peptides′ detoxification capabilities.[17, 18, 22] Adhered cells were poisoned with Pb(NO3)2 (200 μM) and 1 h later treated with various concentrations of peptides[28] and of the benchmark drugs, ranging from 20 μM to 1 mM that are equal to 0.1–5 equivalents compared with the Pb(II) concentration. After an incubation of 23 h, the cells were washed and quantified with the crystal violet assay.[22, 29] Each experiment included both positive and negative controls, which were either cells left untreated with both metal ions and peptides or only poisoned with Pb(NO3)2, respectively. Each dataset was then compared to the negative control to report the peptide recovery abilities (Figures 3A–B and S2).\nLCMS (ESI) Rt = 0.6 min, observed as [M+H]+\nHT-29 cells were chosen as a representative human cell-line due to their high Pb sensitivity and as their medium, RPMI-1640, is compatible with Pb(II), inhibiting metal precipitation.\nHT-29 cells were grown in 25 mM HEPES RPMI -1640 medium, supplemented with 1% L- […]\n37 °C and 5% CO2. 96-well plates were prepared such that every well contain ed 10,000 cells in […]\nconcentration 0.2 mM). 10 µL of H2O were added to the positive control wells. 60 min after the […]\n(which are 0.1, 0.25, 0.5, 1, 2 and 5 equivalents, respectively). To the positive control wells containing no metal and the negative control wells containing metal but no peptides, 10 µL of H2O were added, respectively. Each condition was performed in triplicates. […]\ngently shaken (50 rpm) for 20 min. […]\ndye was observed and allowed to dry overnight.\nRecovery% = A[PepX]−A[blank] × 100% (S4)\nA[blank] – absorbance of an empty well\nEach experiment was performed on three independent repeats. Values are mean ± SD. […]\ncontrol for the recovery). Values are mean ± SD of at least 3 repeats. […]\nand 1.0 mM. […] Each condition was […]"}, "[3]": {"tested_on": "HT-29 cells", "assay": "DCF assay, ROS production", "assay_type": "cell-based, human", "details": "HT-29, peptide 1 mM, with or without Pb(II) 0.2 mM", "description": "ROS production determination in the presence of Pb(II) ions […]\nthe cells were allowed to adhere overnight.\nTo all wells but the positive control wells, 5 µL of 2.2 mM Pb(NO3)2 were added (final concentration 0.2 mM). 5 µL of H2O were added to the positive control wells. 1 h after, 5 µL of 8 […]\ncontrol wells containing no metal and the negative control wel ls containing metal but no peptide, […]\nremoved, the wells were washed with PBS , and 50 µL of PBS were added to each well. 6.75 µL of 2',7'-dichlorodihydrofluorescein diacetate (H 2DCF-DA) (2.1 mM in DMSO) were added (final concentration 0.25 mM) and gently mixed. The plates were incubated for an additional 1 h.\nFluorescence was then measured at an excitation of 490 nm and an emission of 520 nm.\nROS production determination in the absence of Pb(II) ions […]\nconcentrations of 1 mM. To the positive control well s, 5 µL of H2O were added.\nThe plates were incu bated at 37 °C, and 5% CO2 for additional 23 h, after which the medium was […]"}, "[4]": {"tested_on": "Pb-poisoned HT-29 cells", "assay": "ICP-MS Pb content of cells and supernatant (mode of action)", "assay_type": "cell-based, human", "details": "for SN/C, ratio of Pb content in ppb in supernatants and cells: ICP-MS, three independent experiments", "description": "In order to determine the mode of action of 8, by which it enables to achieve a high recovery of Pb‐poisoned HT‐29 cells, inductively coupled plasma mass spectrometry (ICP‐MS) was employed to determine the Pb content of the Pb‐poisoned cells and their respective supernatant. First, HT‐29 cells were poisoned with Pb(NO3)2 (0.2 mM) and the Pb content in the cells and in the medium was determined after 1 and 24 h.[22] The measurement after 1 h was performed to assess the Pb distribution at the time of peptide addition during the recovery experiment and the one after 24 h to reveal the distribution resulting without intervention. At both times, the fraction of intracellular Pb was low and most of the toxic metal was in the medium (Table S10). […] Next, we added 8 to the cells before and after poisoning them with Pb(II) ions to assess whether 8 prevents Pb(II) ions from entering the cells, expels them from the cells or transforms Pb(II) into a non‐toxic complex locally. […] Since treating Pb‐poisoned cells with 8 enables higher viability, despite the fact that their relative intracellular Pb content is elevated, we hypothesize that Pb crosses the cellular membrane from outside as a membrane permeable, non‐toxic Pb(II)‐8 complex.\nCells with Pb(II) ions only were analyzed after 1 or 24 h incubation with the metal salt as reference values:\nTo all wells, 10 µL of 2.2 mM Pb(NO3)2 were added (final concentration 0.2 mM) and the cells were incubated at 37 °C, and 5% CO2 for 1 h, after which samples were prepared for analysis by […]\nCells treated with 8 were analyzed in two sets that differed in the order of peptide and metal salt […]\nAfter respective incubation times, the supernatants were homogenized by gently pipetting up and down and 50 µL were transferred and digested with 100 µL HNO3 (70%) for 1 h in a 15 mL tube. […] Pb in the supernatant was then quantified using ICP-MS.\nSince the cells are adherent, residual supernatant was removed from each well and the cells were washed with RPMI (3x200 µL). […] Pb in the cells was then quantified using ICP-MS. […]"}, "[5]": {"assay": "Ellman's test, oxidation of thiols to disulfide", "assay_type": "physicochemical", "details": "8 100 µM in H2O with 10% 1 M Tris buffer pH 8.0, RT, DTNB 300 µM, absorbance 412 nm", "description": "(§1) To examine this, we used the Ellman's test,[43] where 8 was incubated in H2O, and the Ellman's reagent was added at given time points (Figure S9).[22] While 8 was started to be slightly oxidized within the first 2 h and was steadily forming disulfide bonds, after 24 h, roughly 40 % of the thiols were still reduced, enabling metal coordination within the experimental time frame of our in vitro study.\nCalibration curve: to a 96-well plate with freshly-prepared solutions of Ac-Cys-OMe (12.5-200 µM) in H2O supplemented with 10% 1 M Tris buffer pH 8.0, a fresh solution of Ellman’s reagent (5,5'-dithiobis-(2-nitrobenzoic acid; DTNB; final concentration of 300 µM in H2O supplemented with 12.5 mM sodium acetate) was added. The absorbance of each well at 412 nm was then determined. The average and standard deviation within six wells containing the same AA concentration were calculated and linearly plotted using Origin software .\nSeven 96-well plates were prepared identically with fresh solutions of 8 (100 µM) in H2O supplemented with 10% 1 M Tris buffer pH 8.0, where each condition is replicated in 3 wells. […] The absorbance of each well at 412 nm was then determined , and the concentration of free thiol per well was calculated according to the cal ibration curve. For each time frame, the average and standard deviation were calculated. […]"}, "[6]": {"assay_type": "in vitro ADME", "details": "human blood serum (Sigma Aldrich), 100 µM peptide, 37 °C, aliquots from 0 min up to 48 h, precipitation with CH3CN:H2O 1:1, LCMS", "description": "as §1\n9 Stability in human blood serum\nA freshly prepared solution of 8 (in H2O) was added to the human blood serum (HBS, purchased from Sigma Aldrich) to reach a final peptide concentration of 100 µM and a volume of 1 mL.\nSamples were pipetted carefully up and down three times and incubated at 37 °C. Aliquots (50 µL) were taken periodically, starting from the addition of the serum (0 min) and continuing after 1 h up to 48 h. Aliquots were poured into a mixture of CH3CN:H2O (1:1; 200 µL) to precipitate the HBS proteins. The samples were cooled on ice for 30 min and centrifuged at 4’4 00 rpm for 10 min. The supernatant was analyzed by LCMS.\nFigure S10. Stability of 8 in human blood serum."}}, "note": "Numbered stars: 1 amine (or outer) side, 2 acyl side, 3 side chain; on linkers, the order of the positions; unused ones are H or OH. Square brackets hold non-standard residues; d marks the D form. Peptide text beside a SMILES is read from it. γGlu = O=C(O)[C@H](CCC(=O)[*:2])N[*:1]; βAsp = O=C(O)[C@H](CC(=O)[*:2])N[*:1]; Cya = N[C@@H](CS(=O)(=O)O)C(=O)O"}
{"smiles": "O=C(O)CN(CCN(CC(=O)O)CC(=O)O)CC(=O)O", "note": "[EDTA, ethylenediaminetetraacetic acid, reference compound]", "values": [{"measurement": "effect of compound alone on cell viability, in words", "setting": "[1]", "result": "slight toxicity"}]}
{"smiles": "C[C@@H]1NC(=O)CNC(=O)[C@H](CS)NC(=O)CC[C@@H](C(=O)O)NC(=O)[C@H](C)NC(=O)CNC(=O)[C@H](CS)NC(=O)CC[C@@H](C(=O)O)NC1=O", "note": "[peptide 2] (cyclo(A[γGlu]CGA[γGlu]CG))", "values": [{"measurement": "recovery of Pb-poisoned cells, in words", "setting": "[2]", "result": "enhanced viability of cells treated with 1 mM of 2 compared with lin2"}]}
{"smiles": "C[C@@H]1NC(=O)CNC(=O)[C@H](CS)NC(=O)C[C@@H](C(=O)O)NC(=O)[C@H](C)NC(=O)CNC(=O)[C@H](CS)NC(=O)C[C@@H](C(=O)O)NC1=O", "note": "[peptide 5] (cyclo(A[βAsp]CGA[βAsp]CG))", "values": [{"measurement": "recovery of Pb-poisoned cells, in words", "setting": "[2]", "result": "least active one"}]}
{"smiles": "NC(=O)C[C@@H]1NC(=O)CNC(=O)[C@H](CS)NC(=O)CC[C@@H](C(=O)O)NC(=O)[C@H](CC(N)=O)NC(=O)CNC(=O)[C@H](CS)NC(=O)CC[C@@H](C(=O)O)NC1=O", "note": "[peptide 8] (cyclo(CGN[γGlu]CGN[γGlu]))", "values": [{"measurement": "viability of Pb-poisoned cells relative to the negative control (recovery)", "setting": "[2]", "result": "approximately 2.5 times"}, {"measurement": "oxidative stress (ROS) compared with untreated cells, in words", "setting": "[3]", "result": "decreased the oxidative stress compared to untreated cells"}, {"measurement": "supernatant-to-cells ratio of Pb compared with cells not treated with peptide, in words", "setting": "[4]; 8 added pre- or post-poisoning", "result": "reduced by approximately half"}, {"measurement": "SN/C, ratio of Pb content in ppb in supernatants and cells", "setting": "[4]; condition 3: HT-29 poisoned with 0.2 mM Pb(NO3)2 1 h, then 1 mM 8, further 23 h", "result": "56.3 ± 27.5"}, {"measurement": "SN/C, ratio of Pb content in ppb in supernatants and cells", "setting": "[4]; condition 4: HT-29 given 1 mM 8 for 1 h, then 0.2 mM Pb(NO3)2, further 23 h", "result": "43.3 ± 10.23"}, {"measurement": "time within which oxidation started", "setting": "[5]", "result": "≤ 2", "unit": "h"}, {"measurement": "thiols still reduced", "setting": "[5]; after 24 h, 3 wells", "result": "roughly 40%"}, {"measurement": "time stable in human blood serum", "setting": "[6]", "result": "at least 48 h"}, {"measurement": "effect of compound alone on cell viability, in words", "setting": "[1]", "result": "positively affect cell viability"}]}
{"smiles": "O=C1CC[C@@H](C(=O)O)NC(=O)[C@H](CS(=O)(=O)O)NC(=O)CNC(=O)[C@H](CS)NC(=O)CC[C@@H](C(=O)O)NC(=O)[C@H](CS(=O)(=O)O)NC(=O)CNC(=O)[C@H](CS)N1", "note": "[peptide 9] (cyclo(CG[Cya][γGlu]CG[Cya][γGlu]))", "values": [{"measurement": "viability of Pb-poisoned cells relative to the negative control (recovery)", "setting": "[2]", "result": "approximately 2.5 times"}, {"measurement": "effect of compound alone on cell viability, in words", "setting": "[1]", "result": "no toxicity at all"}]}
